Results taken from patent US8273769B2, “Phenoxy acetic acid derivatives” (Merck Serono SA, priority 2009, dated 2012).

target: T1, CRTH2 (Homo sapiens, UniProt Q9Y5Y4); test: Radioligand binding Scintillation Proximity Assay ([3H]PGD2, hCRTH2-CHO cell membranes); design: host or cells: CHO cells; conditions: 1.5 nM [3H]PGD2, hCRTH2-CHO cell membranes, SPA
T1 sequence (Q9Y5Y4 1-395): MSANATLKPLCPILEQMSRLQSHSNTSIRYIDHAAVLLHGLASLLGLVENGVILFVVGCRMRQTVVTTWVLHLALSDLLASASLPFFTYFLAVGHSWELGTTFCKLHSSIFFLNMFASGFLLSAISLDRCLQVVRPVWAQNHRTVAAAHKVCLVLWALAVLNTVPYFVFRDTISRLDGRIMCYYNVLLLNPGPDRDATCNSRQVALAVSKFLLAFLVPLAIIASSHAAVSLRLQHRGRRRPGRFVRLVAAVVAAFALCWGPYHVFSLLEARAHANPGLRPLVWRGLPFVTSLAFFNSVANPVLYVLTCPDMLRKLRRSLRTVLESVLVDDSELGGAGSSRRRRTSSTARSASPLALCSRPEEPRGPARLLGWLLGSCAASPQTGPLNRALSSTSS
Procedure: Adherent CHO cells expressing hCRTH2 (Euroscreen, Belgium) were cultured in 225 cm^2 cell culture flasks (Corning, USA) in 30 ml of medium. After two rinses of phosphate buffered saline (PBS), cells were harvested in 10 ml of PBS containing 1 mM EDTA, centrifuged at 500×g for 5 min at 4° C. and frozen at −80° C. The pellet was re-suspended in 50 mM Tris-HCl, pH 7.4, 2 mM EDTA, 250 mM Sucrose, containing protease inhibitor cocktail tablets, (Complete EDTA-free, Roche, Germany) and incubated 30 min at 4° C. Cells were disrupted by nitrogen cavitation (Parr Instruments, USA) at 4° C. (800 p.s.i. for 30 min), and centrifuged at 500×g for 10 min at 4° C. Pellet containing nuclei and cellular debris was discarded and supernatant was centrifuged 60 min at 4° C. at 45000×g. Membrane pellet was re-suspended in storage buffer (10 mM HEPES/KOH pH 7.4, 1 mM EDTA, 250 mM sucrose, protease inhibitor cocktail tablets) using Dounce homogenization and frozen in liquid nitrogen, and stored at −80° C.
The inhibitory activity can be investigated by a radioligand binding Scintillation Proximity Assay (SPA) (Sawyer et al., Br. J. Pharmocol 2002, 137, 1163-72). The SPA radioligand binding assay was performed at room temperature in binding buffer (10 mM HEPES/KOH pH 7.4, 10 mM MnCl2, with protease inhibitor cocktail tablets), containing 1.5 nM [^3H]PGD2 (Perkin Elmer), 10-50 μg/ml of hCRTH2-CHO cell membrane protein and 2 mg/ml of Wheat-germ agglutinin Sintillation Proximity Assay beads (RPNQ0001, GE-Healthcare) in a final volume of 100 μl in 96 well plates (Corning, USA). Non-specific binding was determined in the presence of 10 μM PGD2 (Cayman, USA). Competing Compounds of Formula (I) were diluted in dimethylsulphoxide so that the total volume of dimethylsulfoxide was kept constant at 1% dimethylsulphoxide (Me2SO). Serial dilutions of 100 μM to 100 pM were prepared and 10 μl each of the compounds of Formula (I) stock solutions were added to the binding assay reagents and incubated for 90 min with agitation at room temperature. Binding activity was determined by using a 1450 Micro-beta scintillation counter (Wallac, UK).

Row | SMILES | IC50
1 | N#Cc1ccc(OCC(=O)O)c(C#Cc2cncc(S(=O)(=O)NCCO)c2)c1 [Example 75, {4-cyano-2-[(5-{[(2-hydroxyethyl)amino]sulfonyl}pyridin-3-yl)ethynyl]phenoxy}acetic acid] | 372 nM
2 | Cc1nc(C)c(C#Cc2cc(Cl)ccc2OCC(=O)O)s1 [Example 24, {4-chloro-2-[(2,4-dimethyl-1,3-thiazol-5-yl)ethynyl]phenoxy}acetic acid] | 102 nM
3 | CCCS(=O)(=O)c1cccc(C#Cc2cc(-c3cnn(C)c3)ccc2OCC(=O)O)c1 [Example 135, (4-(1-methyl-1H-pyrazol-4-yl)-2-{[3-(propylsulfonyl)phenyl]ethynyl}phenoxy)acetic acid] | 530 nM
4 | Cc1ccc(NS(C)(=O)=O)cc1C#Cc1cc(Cl)ccc1OCC(=O)O [Example 137, [4-chloro-2-({2-methyl-5-[(methylsulfonyl)amino]phenyl}ethynyl)phenoxy]acetic acid] | 70 nM
5 | CCCS(=O)(=O)c1cccc(C#Cc2cc(Cl)cnc2OCC(=O)O)c1 [Example 128, [(5-chloro-3-{[3-(propylsulfonyl)phenyl]ethynyl}pyridin-2-yl)oxy]acetic acid] | 63 nM
6 | O=C(O)COc1ccc(Cl)cc1C#Cc1ccc(NC(=O)c2ccc(C(F)(F)F)cc2)cc1 [Example 150, {4-chloro-2-[(4-{[4-(trifluoromethyl)benzoyl]amino}phenyl)ethynyl]phenoxy}acetic acid] | 267 nM
7 | Cc1ncccc1C#Cc1cc(Cl)ccc1OCC(=O)O [Example 22, {4-chloro-2-[(2-methylpyridin-3-yl)ethynyl]phenoxy}acetic acid] | 175 nM
8 | CCCS(=O)(=O)c1ccc(F)c(C#Cc2cc(Cl)ccc2OC(C)(C)C(=O)O)c1 [Example 169, 2-(4-chloro-2-{[2-fluoro-5-(propylsulfonyl)phenyl]ethynyl}phenoxy)-2-methylpropanoic acid] | 287 nM
9 | N#Cc1ccc(OCC(=O)O)c(C#Cc2cncc(S(=O)(=O)N3CCOCC3)c2)c1 [Example 77, (4-cyano-2-{[5-(morpholin-4-ylsulfonyl)pyridin-3-yl]ethynyl}phenoxy)acetic acid] | 360 nM
10 | COc1ccccc1C#Cc1cc(Cl)ccc1OCC(=O)O [Example 6, {4-chloro-2-[(2-methoxyphenyl)ethynyl]phenoxy}acetic acid] | 229 nM
11 | CCCS(=O)(=O)c1cccc(C#Cc2nc(C)ccc2OCC(=O)O)c1 [Example 66, [(6-methyl-2-{[3-(propylsulfonyl)phenyl]ethynyl}pyridin-3-yl)oxy]acetic acid] | 193 nM
12 | O=C(O)COc1ccccc1C#Cc1ccccc1Cl [Example 45, {2-[(2-chlorophenyl)ethynyl]phenoxy}acetic acid] | 958 nM
13 | CN(c1cncc(C#Cc2cc(Cl)ccc2OCC(=O)O)c1)S(C)(=O)=O [Example 47, [4-chloro-2-({5-[methyl(methylsulfonyl)amino]pyridin-3-yl}ethynyl)phenoxy]acetic acid] | 340 nM
14 | O=C(O)COc1ccc(Cl)cc1C#Cc1ccccn1 [Example 13, [4-chloro-2-(pyridin-2-ylethynyl)phenoxy]acetic acid] | 1440 nM
15 | O=C(O)COc1ccc(Cl)cc1C#Cc1cncc(S(=O)(=O)NCCO)c1 [Example 46, {4-chloro-2-[(5-{[(2-hydroxyethyl)amino]sulfonyl}pyridin-3-yl)ethynyl]phenoxy}acetic acid] | 323 nM

Stronger by IC50, values ahead:

Row | IC50 | SMILES
16 | 60 nM | O=C(O)COc1ccc(Cl)cc1C#Cc1cccc(C(=O)N2CCOCC2)c1 [Example 126, (4-chloro-2-{[3-(morpholin-4-ylcarbonyl)phenyl]ethynyl}phenoxy)acetic acid]
17 | 5 nM | Cc1ccc(S(=O)(=O)N2CCOCC2)cc1C#Cc1cc(Cl)ccc1OCC(=O)O [Example 82, (4-chloro-2-{[2-methyl-5-(morpholin-4-ylsulfonyl)phenyl]ethynyl}phenoxy)acetic acid]
18 | 4 nM | CCCNS(=O)(=O)c1ccc(C)c(C#Cc2cc(Cl)ccc2OCC(=O)O)c1 [Example 118, [4-chloro-2-({2-methyl-5-[(propylamino)sulfonyl]phenyl}ethynyl)phenoxy]acetic acid]
19 | 19 nM | CS(=O)(=O)c1cccc(C#Cc2cc(Cl)ccc2OCC(=O)O)c1 [Example 18, (4-chloro-2-{[3-(methylsulfonyl)phenyl]ethynyl}phenoxy)acetic acid]
20 | 17 nM | CS(=O)(=O)c1cc(C#Cc2cc(Cl)ccc2OCC(=O)O)ccc1-c1ccc(Cl)cc1 [Example 144, (4-chloro-2-{[4′-chloro-2-(methylsulfonyl)biphenyl-4-yl]ethynyl}phenoxy)acetic acid]
21 | 8 nM | CS(=O)(=O)c1ccc(Cl)c(C#Cc2cc(C#N)ccc2OCC(=O)O)c1 [Example 61, (2-{[2-chloro-5-(methylsulfonyl)phenyl]ethynyl}-4-cyanophenoxy)acetic acid]
22 | 25 nM | Cc1ccc(S(N)(=O)=O)cc1C#Cc1cc(Cl)ccc1OCC(=O)O [Example 120, (2-{[5-(aminosulfonyl)-2-methylphenyl]ethynyl}-4-chlorophenoxy)acetic acid]
23 | 33 nM | CCS(=O)(=O)c1ccc(C)c(C#Cc2cc(C#N)ccc2OCC(=O)O)c1 [Example 63, (4-cyano-2-{[5-(ethylsulfonyl)-2-methylphenyl]ethynyl}phenoxy)acetic acid]
24 | 10 nM | CCCS(=O)(=O)c1ccc(F)c(C#Cc2cc(Cl)cnc2OCC(=O)O)c1 [Example 129, [(5-chloro-3-{[2-fluoro-5-(propylsulfonyl)phenyl]ethynyl}pyridin-2-yl)oxy]acetic acid]
25 | 40 nM | O=C(O)COc1ccc(Cl)cc1C#Cc1cncc(S(=O)(=O)N2CC(F)(F)C2)c1 [Example 78, [4-chloro-2-({5-[(3,3-difluoroazetidin-1-yl)sulfonyl]pyridin-3-yl}ethynyl)phenoxy]acetic acid]
26 | 23 nM | CS(=O)(=O)Nc1cncc(C#Cc2cc(Cl)ccc2OCC(=O)O)c1 [Example 39, [4-chloro-2-({5-[(methylsulfonyl)amino]pyridin-3-yl}ethynyl)phenoxy]acetic acid]
27 | 56 nM | O=C(O)COc1ccc(Cl)cc1C#Cc1ccccc1F [Example 5, {4-chloro-2-[(2-fluorophenyl)ethynyl]phenoxy}acetic acid]
28 | 11 nM | Cc1ccc(S(=O)(=O)c2ccccc2)cc1C#Cc1cc(C#N)ccc1OCC(=O)O [Example 94, (4-cyano-2-{[2-methyl-5-(phenylsulfonyl)phenyl]ethynyl}phenoxy)acetic acid]
29 | 27 nM | Cc1ccc(S(=O)(=O)N2CCN(C)CC2)cc1C#Cc1cc(Cl)ccc1OCC(=O)O [Example 112, [4-chloro-2-({2-methyl-5-[(4-methylpiperazin-1-yl)sulfonyl]phenyl}ethynyl)phenoxy]acetic acid]
30 | 5 nM | CCN(CC)S(=O)(=O)c1ccc(C)c(C#Cc2cc(Cl)ccc2OCC(=O)O)c1 [Example 81, [4-chloro-2-({5-[(diethylamino)sulfonyl]-2-methylphenyl}ethynyl)phenoxy]acetic acid]
31 | 32 nM | O=C(O)COc1ccc(Cl)cc1C#Cc1ccc2c(c1)S(=O)(=O)C=C2 [Example 156, {4-chloro-2-[(1,1-dioxido-1-benzothien-6-yl)ethynyl]phenoxy}acetic acid]
32 | 9 nM | Cc1ccc(S(=O)(=O)CCc2ccccc2)cc1C#Cc1cc(Cl)ccc1OCC(=O)O [Example 92, [4-chloro-2-({2-methyl-5-[(2-phenylethyl)sulfonyl]phenyl}ethynyl)phenoxy]acetic acid]
33 | 25 nM | Cc1ccc(S(=O)(=O)CCO)cc1C#Cc1cc(Cl)ccc1OCC(=O)O [Example 52, [4-chloro-2-({5-[(2-hydroxyethyl)sulfonyl]-2-methylphenyl}ethynyl)phenoxy]acetic acid]
34 | 5 nM | Cc1ccc(S(=O)(=O)N(C)CC(C)C)cc1C#Cc1cc(Cl)ccc1OCC(=O)O [Example 110, {4-chloro-2-[(5-{[isobutyl(methyl)amino]sulfonyl}-2-methylphenyl)ethynyl]phenoxy}acetic acid]
